Consider ten molecules from patent US9637516B2, “Betulinic acid proline derivatives as HIV inhibitors” (HETERO RESEARCH FOUNDATION, priority 2012, dated 2017).

pIC50: −log10 of the molar value.

As usually defined, the inhibition is the change of the read-out against control, counted positive when it falls. For orientation: viability means the share of living cells, or the viability signal relative to a control. A low value points to more harm to the cells. The AUC(0-t) is exposure summed from dosing to a finite time, without extrapolation to infinity. In general, Cmax refers to the maximum level reached in the sampled fluid or tissue. Broadly, the Tmax is the time from dosing to the highest level. For orientation: pIC50 means the IC50 on a negative log10 scale, so that one unit is a factor of ten. Usually AUC(0-inf) stands for the area under the concentration-time curve extrapolated to infinity. Read a low AUC(0-inf) as low exposure. In general, half-life refers to the time in which the quantity being followed falls by half. High values mean slow decline, low ones rapid decline.

The test system of one data set is HIV-1 strain 92HT599. The data set can be described thus: Antiviral activity: p24 estimation in MT2 cells infected with HIV-1 strain 92HT599. The format is cell-based. The settings on record: for inhibition at 0.1 µM: Human immunodeficiency virus 1, 100 nM; for inhibition at 0.1 µM / inhibition at 1 µM: HIV-1 92HT599, p24, ~96 hours; for inhibition at 1 µM: Human immunodeficiency virus 1, 1000 nM; for pIC50: Human immunodeficiency virus 1, HIV-1 92HT599, p24. As to the method:
MT2 cells were infected with HIV-1 strain 92HT599 (10 TCID 50/30000 cells). The infected cells were plated at the concentration of ˜30 000 cells per well in 96 well plate. Test compound was added to the micro plate in defined format with the final concentration of DMSO (vehicle) is not more than 1%. Incubation was carried out in CO2 incubator for ˜96 hours for viral infection. At the end of incubation period an aliquot from each well was taken for p24 estimation. The quantitation of p24 is an index for antiviral activity of the compound. Percent inhibition was calculated with reference to control values (vehicle controls). p-24 estimation was carried out using Advance biosciences kit as per the procedure detailed by supplier.

The nature of another data set: in vitro. The format is cell-based. As to conditions: human, Cytotoxicity % viability. As to the method: (§1) For cyto-toxicity assay the same amount of MT2 cells as in antiviral assay without virus was added to the 96 well plates. The cyto-toxicity was measured using MTT reagent in parallel with p24 estimation. The percent viability is calculated in comparison with vehicle control.

A further data set relates to MT2 cells. The data set can be described thus: in vitro. The format is cell-based. The settings on record: human, 1 µM. As for the experimental part: as §1
Data set [1] is described as follows: Single dose oral pharmacokinetic study. The format is in vivo, mice. As to conditions: mouse, plasma. As for the experimental part: The test item was administered through oral route to animals (rat/mice) at 30 mg/kg dose in a suitable vehicle at 10 ml/kg dose volume. Blood samples (˜50 uL at each time point) were collected from retro-orbital plexus using K3 EDTA as anticoagulant in eppendorf tubes at defined time intervals under light ether anesthesia. The samples were centrifuged at 3500×g to separate plasma and stored at −80° C. until analysis.
Sample analysis: Test samples were analyzed using LC-MS-MS after developing fit-for-purpose method for each of test compound.

[2] abbreviates: Mice oral PK @30 mg/kg (Table 3).
Where [3] appears, read: Mice oral PK @30 mg/kg (Table 4).

As to `CC(C)(CC(=O)O[C@H]1CC[C@]2(C)[C@H]3CC[C@@H]4[C@H]5[C@H](C6(C)CC6)CC[C@]5(C(=O)N5CCC[C@@H]5c5nc(-c6ccccc6)no5)CC[C@@]4(C)[C@]3(C)CC[C@H]2C1(C)C)C(=O)O` [Compound 5, 2,2-dimethyl-4-oxo-4-((1R,3aS,5aR,5bR,7aR,9S,11aR,11bR,13aR,13bR)-5a,5b,8,8,11a-pentamethyl-1-(1-methylcyclopropyl)-3a-((R)-2-(3-phenyl-1,2,4-oxadiazol-5-yl)pyrrolidine-1-carbonyl)icosahydro-1H-cyclopenta[a]chrysen-9-yloxy)butanoic acid], in the data set with HIV-1 strain 92HT599, the inhibition at 0.1 µM is 64% and the inhibition at 1 µM was 99%. Further, the viability at 1 µM in the data set “in vitro” came to 91%. In the data set with MT2 cells, the Cytotoxicity % viability was determined as 100%.

For the molecule `C=C(C)[C@@H]1CC[C@]2(C(=O)N3CCC[C@H]3c3ncc(-c4cccnc4)[nH]3)CC[C@]3(C)[C@H](CC[C@@H]4[C@@]5(C)CC[C@H](OC(=O)CC(C)(C)CC(=O)O)C(C)(C)[C@@H]5CC[C@]43C)[C@@H]12` [Compound 11, 3,3-dimethyl-5-oxo-5-((1R,3aS,5aR,5bR,7aR,9S,11aR,11bR,13aR,13bR)-5a,5b,8,8,11a-pentamethyl-1-(prop-1-en-2-yl)-3a-((S)-2-(5-(pyridin-3-yl)-1H-imidazol-2-yl)pyrrolidine-1-carbonyl)icosahydro-1H-cyclopenta[a]chrysen-9-yloxy)pentanoic acid], in data set [1] (setting [2]), the AUC(0-t) was 59.5 µg·h/mL, the Cmax turned out to be 7620 ng/mL and the Tmax amounted to 1.25 h. Besides, in the data set with HIV-1 strain 92HT599, the inhibition at 0.1 µM was 99%, the inhibition at 1 µM is 100% and the pIC50 was 8.82. The same molecule displayed a viability at 1 µM in the data set “in vitro” of 80%. For the same molecule, the Cytotoxicity % viability with MT2 cells is 84%.

`C=C(C)[C@@H]1CC[C@]2(C(=O)N3CCC[C@H]3c3ncc(-c4ccccc4)[nH]3)CC[C@]3(C)[C@H](CC[C@@H]4[C@@]5(C)CC[C@H](OC(=O)CC(C)(C)C(=O)O)C(C)(C)[C@@H]5CC[C@]43C)[C@@H]12` [Compound 8, 2,2-dimethyl-4-oxo-4-((1R,3aS,5aR,5bR,7aR,9S,11aR,11bR,13aR,13bR)-5a,5b,8,8,11a-pentamethyl-3a-((S)-2-(5-phenyl-1H-imidazol-2-yl)pyrrolidine-1-carbonyl)-1-(prop-1-en-2-yl)icosahydro-1H-cyclopenta[a]chrysen-9-yloxy)butanoic acid]: in data set [1] (setting [2]), the AUC(0-t) worked out at 143 µg·h/mL, the Cmax is 11100 ng/mL and the Tmax came out at 3.75 h. For the same molecule, in the data set on HIV-1 strain 92HT599, the inhibition at 0.1 µM is 100%, the inhibition at 1 µM is 100% and the pIC50 is 7.89. In the data set “in vitro”, this molecule came in with a viability at 1 µM of 96%. In the data set on MT2 cells, this molecule came in with a Cytotoxicity % viability of 88%.

`C=C(C)[C@@H]1CC[C@]2(C(=O)N3CCC[C@@H]3c3nc(-c4ccccc4)no3)CC[C@]3(C)[C@H](CC[C@@H]4[C@@]5(C)CC[C@H](OC(=O)CC(C)(C)CC(=O)O)C(C)(C)[C@@H]5CC[C@]43C)[C@@H]12` [Compound 2, 3,3-dimethyl-5-oxo-5-((1R,3aS,5aR,5bR,7aR,9S,11aR,11bR,13aR,13bR)-5a,5b,8,8,11a-pentamethyl-3a-((R)-2-(3-phenyl-1,2,4-oxadiazol-5-yl)pyrrolidine-1-carbonyl)-1-(prop-1-en-2-yl)icosahydro-1H-cyclopenta[a]chrysen-9-yloxy)pentanoic acid]: in the data set on HIV-1 strain 92HT599, the inhibition at 0.1 µM is 30% and the inhibition at 1 µM was 90%. For the same molecule, the viability at 1 µM in the data set “in vitro” amounted to 90%. The molecule also displayed a Cytotoxicity % viability in the data set on MT2 cells of 92%.

As for `CC(C)(CC(=O)O)CC(=O)O[C@H]1CC[C@]2(C)[C@H]3CC[C@@H]4[C@H]5[C@H](C6(C)CC6)CC[C@]5(C(=O)N5CCC[C@H]5c5ncc(-c6ccccc6)[nH]5)CC[C@@]4(C)[C@]3(C)CC[C@H]2C1(C)C` [Compound 13, 3,3-dimethyl-5-oxo-5-((1R,3aS,5aR,5bR,7aR,9S,11aR,11bR,13aR,13bR)-5a,5b,8,8,11a-pentamethyl-1-(1-methylcyclopropyl)-3a-((S)-2-(5-phenyl-1H-imidazol-2-yl)pyrrolidine-1-carbonyl)icosahydro-1H-cyclopenta[a]chrysen-9-yloxy)pentanoic acid], in data set [1] (setting [2]), the AUC(0-t) is 156 µg·h/mL, the Cmax is 11100 ng/mL and the Tmax was 4 h. Further, in the data set with HIV-1 strain 92HT599, the inhibition at 0.1 µM was 78% and the inhibition at 1 µM is 100%. Moreover, in the data set “in vitro”, the viability at 1 µM was 74%. Besides, the Cytotoxicity % viability in the data set on MT2 cells was 72%.

`C=C(C)[C@@H]1CC[C@]2(C(=O)N3CCCC3c3ncc(-c4ccc(OC)cc4)[nH]3)CC[C@]3(C)[C@H](CC[C@@H]4[C@@]5(C)CC[C@H](OC(=O)[C@H]6C[C@@H](C(=O)O)C6(C)C)C(C)(C)[C@@H]5CC[C@]43C)[C@@H]12` (some centres unmarked) [Compound 15]: in data set [1] (setting [3]), the AUC(0-inf) was 446 µg·h/mL, the AUC(0-t) worked out at 286 µg·h/mL, the Cmax was found to be 11400 ng/mL and the half-life is 30.9 h. Moreover, in the data set on HIV-1 strain 92HT599, the inhibition at 0.1 µM is 98% and the inhibition at 1 µM is 97%.

In data set [1] (setting [3]), `C=C(C)[C@@H]1CC[C@]2(C(=O)N3CCC[C@H]3c3ncc(-c4ccc(F)cc4)[nH]3)CC[C@]3(C)[C@H](CC[C@@H]4[C@@]5(C)CC[C@H](OC(=O)C6CC(C(=O)O)C6(C)C)C(C)(C)[C@@H]5CC[C@]43C)[C@@H]12` (stereo partly drawn) [Compound 35, 3-((((1R,3aS,5aR,5bR,7aR,9S,11aR,11bR,13aR,13bR)-3a-((S)-2-(5-(4-fluorophenyl)-1H-imidazol-2-yl)pyrrolidine-1-carbonyl)-5a,5b,8,8,11a-pentamethyl-1-(prop-1-en-2-yl)icosahydro-1H-cyclopenta[a]chrysen-9-yl)oxy)carbonyl)-2,2-dimethylcyclobutane-1-carboxylic acid] gave an AUC(0-inf) of 655 µg·h/mL, an AUC(0-t) of 410 µg·h/mL, a Cmax of 16000 ng/mL and a half-life of 34.2 h. In the data set with HIV-1 strain 92HT599, the pIC50 was 7.13.

In the case of `CC(C)(CC(=O)O[C@H]1CC[C@]2(C)[C@H]3CC[C@@H]4[C@H]5[C@H](C6(C)CC6)CC[C@]5(C(=O)N5CCC[C@H]5c5ncc(-c6ccccc6)[nH]5)CC[C@@]4(C)[C@]3(C)CC[C@H]2C1(C)C)C(=O)O` [Compound 12, 2,2-dimethyl-4-oxo-4-((1R,3aS,5aR,5bR,7aR,9S,11aR,11bR,13aR,13bR)-5a,5b,8,8,11a-pentamethyl-1-(1-methylcyclopropyl)-3a-((S)-2-(5-phenyl-1H-imidazol-2-yl)pyrrolidine-1-carbonyl)icosahydro-1H-cyclopenta[a]chrysen-9-yloxy)butanoic acid], in data set [1] (setting [2]), the AUC(0-t) was determined as 69.3 µg·h/mL, the peak level (Cmax) was 7260 ng/mL and the Tmax came out at 3 h. For the same molecule, in the data set with HIV-1 strain 92HT599, the inhibition at 0.1 µM is 100%, the inhibition at 1 µM is 100% and the pIC50 was 8.34. In addition, in “in vitro”, the viability at 1 µM was found to be 85%.

Take `C=C(C)[C@@H]1CC[C@]2(C(=O)N3CCC[C@H]3c3ncc(-c4ccc(F)cc4)[nH]3)CC[C@]3(C)[C@H](CC[C@@H]4[C@@]5(C)CC[C@H](OC(=O)CC(C)(C)C(=O)O)C(C)(C)[C@@H]5CC[C@]43C)[C@@H]12` [Compound 34, 4-(((1R,3aS,5aR,5bR,7aR,9S,11aR,11bR,13aR,13bR)-3a-((S)-2-(5-(4-fluorophenyl)-1H-imidazol-2-yl)pyrrolidine-1-carbonyl)-5a,5b,8,8,11a-pentamethyl-1-(prop-1-en-2-yl)icosahydro-1H-cyclopenta[a]chrysen-9-yl)oxy)-2,2-dimethyl-4-oxobutanoic acid]: in data set [1] (setting [3]), the AUC(0-inf) was determined as 263 µg·h/mL, the AUC(0-t) worked out at 224 µg·h/mL, the Cmax worked out at 13300 ng/mL and the half-life is 16.1 h. Further, the pIC50 with HIV-1 strain 92HT599 is 7.77.

In data set [1] (setting [3]), `CC1(C)C(C(=O)O)CC1C(=O)O[C@H]1CC[C@]2(C)[C@H]3CC[C@@H]4[C@H]5[C@H](C6(C)CC6)CC[C@]5(C(=O)N5CCC[C@H]5c5ncc(-c6ccc(F)cc6)[nH]5)CC[C@@]4(C)[C@]3(C)CC[C@H]2C1(C)C` (stereo partly drawn) [Compound 42, 3-((((1R,3aS,5aR,5bR,7aR,9S,11aR,11bR,13aR,13bR)-3a-((S)-2-(5-(4-fluorophenyl)-1H-imidazol-2-yl)pyrrolidine-1-carbonyl)-5a,5b,8,8,11a-pentamethyl-1-(1-methylcyclopropyl)icosahydro-1H-cyclopenta[a]chrysen-9-yl)oxy)carbonyl)-2,2-dimethylcyclobutane-1-carboxylic acid] gave an AUC(0-inf) of 448 µg·h/mL, an AUC(0-t) of 254 µg·h/mL, a Cmax of 9300 ng/mL and a half-life of 37.3 h. Besides, the pIC50 with HIV-1 strain 92HT599 is over 9.52.
